The source of these data is ChEMBL document CHEMBL3044764, “Synthesis and herbicidal activities of 2-cyano-3-benzylaminoacrylates containing thiazole moiety” (2010).

Test [1] has as its system Brassica napus. Put plainly: Post-emergence herbicidal activity against Brassica napus (oilseed rape) after 10 days. It counts as functional.
The subject of test [2] is Brassica napus. Put plainly: Post-emergence herbicidal activity against Brassica napus (oilseed rape) at 375 g/ha after 10 days. Type of test: functional.
The test system of test [3] is Brassica napus. As to the kind of experiment: Post-emergence herbicidal activity against Brassica napus (oilseed rape) at 750 g/ha after 10 days. Type of test: functional.
Test [4] deals with Amaranthus retroflexus. As to the kind of experiment: Post-emergence herbicidal activity against Amaranthus retroflexus at 375 g/ha after 10 days. Type of test: functional.
Test [5] has as its system Amaranthus retroflexus. Put plainly: Post-emergence herbicidal activity against Amaranthus retroflexus at 750 g/ha after 10 days. It counts as functional.
In test [6] the test system is Amaranthus retroflexus. Put plainly: Pre-emergence herbicidal activity against Amaranthus retroflexus at 1500 g/ha after 10 days. Type of test: functional.
Test [7] concerns Medicago sativa. As to the kind of experiment: Pre-emergence herbicidal activity against Medicago sativa (alfalfa) at 1500 g/ha after 10 days. It counts as functional.
For test [8], the system named is Brassica napus. Put plainly: Pre-emergence herbicidal activity against Brassica napus (oilseed rape) at 1500 g/ha after 10 days. Type of test: functional.
The subject of test [9] is Amaranthus retroflexus. Put plainly: Post-emergence herbicidal activity against Amaranthus retroflexus at 1500 g/ha after 10 days. It counts as functional.
Test [10] deals with Brassica napus. Put plainly: Post-emergence herbicidal activity against Brassica napus (oilseed rape) at 1500 g/ha after 10 days. It counts as functional.
For test [11], the system named is Medicago sativa. Put plainly: Post-emergence herbicidal activity against Medicago sativa (alfalfa) at 1500 g/ha after 10 days. It counts as functional.
Test [12] deals with Photosystem II protein D1 (Spinacia oleracea) (UniProt P69560). Put plainly: Inhibition of photosystem II in Spinacia oleracea (spinach) chloroplast assessed as inhibition of hill reaction at 1 ug/ml relative to control.

A word on the inhibition: it is the share of the control response that was lost under treatment.

Consider `CC/C(NCc1ccc(OCc2cnc(Cl)s2)c(OC)c1)=C(\C#N)C(=O)OCCOC`, for which the LD50 in the test with Brassica napus [1] amounted to 237.1 g/ha. This compound yielded an LD90 in the test with Brassica napus [1] of 817.35 g/ha. In addition, the Activity was 42.9% with Brassica napus [2]; 46.4% in the test on Brassica napus [3]; 0% with Amaranthus retroflexus [4]; 32.9% in the test on Amaranthus retroflexus [5]; 0% in the test on Amaranthus retroflexus [6]; 2% in the test on Medicago sativa [7]. For the same compound, the Activity in the test with Brassica napus [8] came to 0%; in the test with Amaranthus retroflexus [9], 100%; in the test with Brassica napus [10], 96.6%; in the test with Medicago sativa [11], 46.8%. In addition, the inhibition in test [12] was 70.2%.

Turning to `COCCOC(=O)/C(C#N)=C(/C)NCc1ccc(OCc2cnc(Cl)s2)cc1`, the Activity stood at 0% in the test on Amaranthus retroflexus [6]; 0% in the test on Medicago sativa [7]; 0% in the test on Brassica napus [8]; 0% in the test with Amaranthus retroflexus [9]; 98.5% with Brassica napus [10]; 0% with Medicago sativa [11]. The inhibition in test [12] is 65.2%.

Turning to `CCOCCOC(=O)/C(C#N)=C(\NCc1ccc(OCc2cnc(Cl)s2)cc1)SC`, the LD50 in the test with Brassica napus [1] is recorded as 49.14 g/ha. For the same compound, the LD90 with Brassica napus [1] was found to be 197.66 g/ha. The Activity in the test with Brassica napus [2] is 95.1%; with Brassica napus [3] it was 100%; in the test on Amaranthus retroflexus [4], 55.6%; with Amaranthus retroflexus [5] it was 91.6%; with Amaranthus retroflexus [6] it was 0%; in the test with Medicago sativa [7], 0%. Moreover, the Activity is given as 10% in the test with Brassica napus [8], 100% in the test with Amaranthus retroflexus [9], 100% in the test with Brassica napus [10] and 0% with Medicago sativa [11]. In addition, in test [12], the inhibition was 72.5%.

`COCCOC(=O)/C(C#N)=C(/C)NCc1ccc(OCc2cnc(Cl)s2)c(OC)c1`: the Activity in the test on Amaranthus retroflexus [6] stood at 0%; with Medicago sativa [7], 0%; in the test with Brassica napus [8] it was 15%; with Amaranthus retroflexus [9] it was 92.2%; with Brassica napus [10], 84.6%; in the test with Medicago sativa [11], 56.5%. For the same compound, the inhibition in test [12] came out at 42.7%.

In the case of `CCOCCOC(=O)/C(C#N)=C(/C)NCc1ccc(OCc2cnc(Cl)s2)cc1`, the Activity with Amaranthus retroflexus [6] is 0%; in the test with Medicago sativa [7] it was 0%; in the test on Brassica napus [8] it was 0%; with Amaranthus retroflexus [9] it was 32.6%; in the test with Brassica napus [10], 100%; in the test with Medicago sativa [11], 0%. Moreover, the inhibition in test [12] worked out at 56.5%.

For `CCOCCOC(=O)/C(C#N)=C(/CC)NCc1ccc(OCc2cnc(Cl)s2)c(OC)c1`, the LD50 in the test with Brassica napus [1] is 196.53 g/ha. Moreover, the LD90 in the test with Brassica napus [1] is on record as 862.13 g/ha. For the same compound, the Activity with Brassica napus [2] is on record as 41.2%; with Brassica napus [3], 74.6%; in the test with Amaranthus retroflexus [4], 21%; in the test on Amaranthus retroflexus [5] it was 30.9%; in the test with Amaranthus retroflexus [6] it was 10%; in the test on Medicago sativa [7] it was 0%. Also, the Activity with Brassica napus [8] was 5%; in the test on Amaranthus retroflexus [9], 100%; with Brassica napus [10] it was 98.3%; in the test on Medicago sativa [11], 41.9%. Besides, the inhibition in [12] was determined as 71.3%.

In turn, `COCCOC(=O)/C(C#N)=C(\NCc1ccc(OCc2cnc(Cl)s2)cc1)C(C)C` gave an LD50 in the test with Brassica napus [1] of 53.48 g/ha. The same compound returned an LD90 in the test with Brassica napus [1] of 146.04 g/ha. Further, the Activity is recorded as 92.8% in the test on Brassica napus [2]; 100% in the test on Brassica napus [3]; 98.1% in the test on Amaranthus retroflexus [4]; 100% in the test with Amaranthus retroflexus [5]; 0% in the test on Amaranthus retroflexus [6]; 0% in the test with Medicago sativa [7]. The Activity was found to be 0% with Brassica napus [8], 91.6% in the test with Amaranthus retroflexus [9], 100% in the test on Brassica napus [10] and 30% with Medicago sativa [11]. Moreover, the inhibition in test [12] came out at 82%.

In the case of `COCCOC(=O)/C(C#N)=C(\NCc1ccc(OCc2cnc(Cl)s2)c(OC)c1)SC`, the Activity in the test with Amaranthus retroflexus [6] amounted to 2.7%; with Medicago sativa [7] it was 50.6%; with Brassica napus [8], 0%; in the test on Amaranthus retroflexus [9], 89.6%; in the test on Brassica napus [10], 83.6%; in the test on Medicago sativa [11], 66.1%. Moreover, the inhibition in test [12] was determined as 61.2%.

With `CCOCCOC(=O)/C(C#N)=C(/C)NCc1ccc(OCc2cnc(Cl)s2)c(OC)c1`, the Activity with Amaranthus retroflexus [6] was determined as 5%; with Medicago sativa [7] it was 30.6%; in the test with Brassica napus [8] it was 0%; in the test with Amaranthus retroflexus [9] it was 89.6%; in the test on Brassica napus [10] it was 94.2%; with Medicago sativa [11], 30%. In addition, the inhibition in test [12] worked out at 68.5%.

Regarding `COCCOC(=O)/C(C#N)=C(\NCc1ccc(OCc2cnc(Cl)s2)c(OC)c1)C(C)C`, the LD50 in the test on Brassica napus [1] stood at 101.62 g/ha. In the test with Brassica napus [1], the LD90 stood at 251.01 g/ha. For the same compound, the Activity with Brassica napus [2] amounted to 62.4%; in the test with Brassica napus [3], 94.1%; with Amaranthus retroflexus [4], 73.6%; with Amaranthus retroflexus [5] it was 89.8%; with Amaranthus retroflexus [6] it was 0%; in the test on Medicago sativa [7], 42.9%. The Activity in the test on Brassica napus [8] is listed as 41.7%; with Amaranthus retroflexus [9], 100%; in the test on Brassica napus [10], 100%; in the test with Medicago sativa [11], 71.1%. Also, the inhibition in [12] worked out at 80.4%.

In the test with Brassica napus [1], `CC/C(NCc1ccc(OCc2cnc(Cl)s2)cc1)=C(\C#N)C(=O)OCCOC` returned an LD50 of 205.19 g/ha. Further, the LD90 in the test with Brassica napus [1] turned out to be 640.88 g/ha. For the same compound, the Activity came to 0% in the test on Amaranthus retroflexus [6]; 0% with Medicago sativa [7]; 0% in the test on Brassica napus [8]; 0% with Amaranthus retroflexus [9]; 100% in the test with Brassica napus [10]; 0% in the test on Medicago sativa [11]. In addition, in test [12], the inhibition amounted to 59.6%.

`CCOCCOC(=O)/C(C#N)=C(/CC)NCc1ccc(OCc2cnc(Cl)s2)cc1` returned an LD50 in the test on Brassica napus [1] of 83.96 g/ha. For the same compound, the LD90 in the test on Brassica napus [1] amounted to 311.43 g/ha. Moreover, the Activity came to 40% in the test on Brassica napus [2]; 100% in the test on Brassica napus [3]; 24.5% in the test on Amaranthus retroflexus [4]; 84.4% in the test with Amaranthus retroflexus [5]; 0% in the test on Amaranthus retroflexus [6]; 0% with Medicago sativa [7]. Also, the Activity was 0% in the test with Brassica napus [8], 96.3% with Amaranthus retroflexus [9], 100% with Brassica napus [10] and 10% in the test on Medicago sativa [11]. In test [12], the inhibition amounted to 70.2%.

For `CCOCCOC(=O)/C(C#N)=C(\NCc1ccc(OCc2cnc(Cl)s2)c(OC)c1)C(C)C`, the LD50 with Brassica napus [1] is listed as 131.42 g/ha. Besides, in the test on Brassica napus [1], the LD90 is 484.4 g/ha. Also, the Activity came to 73.5% in the test with Brassica napus [2]; 100% in the test with Brassica napus [3]; 59.3% in the test with Amaranthus retroflexus [4]; 87.8% in the test with Amaranthus retroflexus [5]; 0% in the test with Amaranthus retroflexus [6]; 0% in the test with Medicago sativa [7]. Also, the Activity with Brassica napus [8] amounted to 0%; with Amaranthus retroflexus [9] it was 100%; with Brassica napus [10], 100%; with Medicago sativa [11], 68.5%. The inhibition in test [12] turned out to be 93.8%.

`CCOCCOC(=O)/C(C#N)=C(\NCc1ccc(Cl)nc1)SC` displayed an LD50 with Brassica napus [1] of 8.84 g/ha. This compound gave an LD90 in the test with Brassica napus [1] of 133.77 g/ha. Further, the Activity in the test with Brassica napus [2] was determined as 100%; with Brassica napus [3] it was 100%; in the test on Amaranthus retroflexus [4], 100%; in the test with Amaranthus retroflexus [5] it was 100%; in the test on Amaranthus retroflexus [6], 35.1%; in the test with Medicago sativa [7], 0%. In addition, the Activity is on record as 90.7% in the test on Brassica napus [8], 100% in the test with Amaranthus retroflexus [9], 100% in the test with Brassica napus [10] and 85% in the test with Medicago sativa [11]. Also, the inhibition in test [12] was found to be 75.8%.

In the test on Brassica napus [1], `CCOCCOC(=O)/C(C#N)=C(\NCc1ccc(OCc2cnc(Cl)s2)c(OC)c1)SC` showed an LD50 of 507.9 g/ha. The compound also registered an LD90 with Brassica napus [1] of 2548.33 g/ha. The Activity is 0% with Amaranthus retroflexus [6]; 10% in the test on Medicago sativa [7]; 10% with Brassica napus [8]; 97.4% in the test on Amaranthus retroflexus [9]; 86.3% with Brassica napus [10]; 49.2% in the test on Medicago sativa [11]. For the same compound, the inhibition in test [12] worked out at 87.1%.

`CCOCCOC(=O)/C(C#N)=C(\NCc1ccc(OCc2cnc(Cl)s2)cc1)C(C)C`: the LD50 in the test with Brassica napus [1] is given as 73.01 g/ha. In addition, in the test with Brassica napus [1], the LD90 is reported as 185.4 g/ha. In addition, the Activity in the test on Brassica napus [2] worked out at 51.2%; in the test on Brassica napus [3], 100%; in the test on Amaranthus retroflexus [4], 47.2%; in the test on Amaranthus retroflexus [5], 100%; in the test with Amaranthus retroflexus [6], 0%; in the test with Medicago sativa [7] it was 0%. Moreover, the Activity with Brassica napus [8] is given as 0%; with Amaranthus retroflexus [9], 91.6%; in the test on Brassica napus [10], 100%; in the test on Medicago sativa [11], 15%. In test [12], the inhibition was found to be 72.5%.

`COCCOC(=O)/C(C#N)=C(\NCc1ccc(OCc2cnc(Cl)s2)cc1)SC`: the Activity with Amaranthus retroflexus [6] amounted to 0%; in the test with Medicago sativa [7], 0%; with Brassica napus [8] it was 0%; in the test with Amaranthus retroflexus [9], 71.3%; in the test with Brassica napus [10], 100%; in the test with Medicago sativa [11], 30%. In [12], the inhibition came to 80.9%.
